Test results published in PubChem BioAssay AID504313 (Emory University Molecular Libraries Screening Center, 2011).
Active and inactive are the calls of the source. How the calls were made is not given here.

Biological target: X-box-binding protein 1 (Homo sapiens) (UniProt P17861)
Experiment: XBP1 reporter suppression in cells – counter-screen, dose response (AID 504313);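 further: CHO cells carrying an XBP1 reporter stimulated with tunicamycin; potency is for inhibition of the tunicamycin-induced reporter signal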
Settings: XBP1 reporter cell assay, percent of control

Compound	IC50
O=C(C1=C(c2ccccc2)C(=O)c2ccccc2C1=O)c1ccccc1	inactive
Cc1cccc(OCC(=O)N/N=C\C=C\c2ccc3c(c2)OCO3)c1C	> 10 µM (inactive)
CCCC(NCC(O)COc1ccc(-c2ccccc2)cc1)c1ccccc1 (stereo unspecified)	inactive
COc1ccc(/C=C/C(=O)NC(=S)NNC(=O)c2cccnc2)cc1	> 10 µM (inactive)
CCc1ccc(-c2nc(CN3CCC(C(=O)NCCN(CC)c4ccccc4)CC3)c(C)o2)cc1	> 10 µM (inactive)
CCSCCc1nnc(NC(=O)Nc2cccc(C(F)(F)F)c2)s1	4.74 µM
CC(C)COc1ccc(/C(=N/O)c2ccccc2)cc1	inactive
CC(C)CC(NC(=O)c1ccc(Cl)cc1)C(=O)OCC(=O)c1ccc2c(c1)NC(=O)CO2 (stereo unspecified)	inactive
CC(C)c1nnc(NC(=O)c2c(O)c3cccc4c3n(c2=O)CCC4)s1	4.37 µM
COC(=O)[C@@H]1[C@@H](C(=O)OC)C2(c3ccccc3-c3ccccc32)N(c2ccc(Cl)cc2)N1C#N	> 10 µM (inactive)
COc1ccc(C2=NN(C(=O)c3ccco3)C(c3cc4ccccc4nc3Cl)C2)cc1 (stereo unspecified)	> 10 µM (inactive)
Cc1cccc(OCc2n(CC(=O)OC3CC(C)CCC3C(C)C)c3ccccc3[n+]2C)c1 (stereo unspecified)	> 10 µM (inactive)
CNC(=O)c1nnsc1S(=O)(=O)c1ccc(Cl)cc1	inactive
CCCCCn1c(SCCC(C)C)nc2c1c(=O)[nH]c(=O)n2C	inactive
NC(=S)n1[nH]c(-c2ccc([N+](=O)[O-])cc2)c(N=Nc2ccc(Cl)cc2)c1=O	inactive
C=C1C(=O)C=C2CN(C(=O)c3ccccc3)[C@@](Cc3ccc(F)cc3)(C(=O)OC)[C@@H]12	1.03 µM
CCOC(=O)C1=C(c2ccccc2)O/C(=C(/C#N)C(F)(F)F)S1	> 10 µM (inactive)
C=CCN1C(=O)/C(=C/c2ccc(OC(C)=O)c(OCC)c2[N+](=O)[O-])SC1=S	inactive
CCOC(=O)c1cc(-c2ccccc2)nc2c1c(C)nn2-c1ccccn1	> 10 µM (inactive)
Cc1ccc(-c2nnc(-c3ccc(NC(=O)Cc4cccs4)cc3)o2)cc1	> 10 µM (inactive)
O=C1CC(c2ccco2)CC(O)=C1C=Nc1ccccc1-c1ccccc1 (stereo unspecified)	inactive
CCOC(=O)c1c(-n2c(C)cc(C=C3C(=O)NC(=S)NC3=O)c2C)sc2c1CCCC2	inactive
Cc1ccc(OCC(=O)N2N=C(C(F)(F)F)CC2(O)C(C)(C)C)cc1C (stereo unspecified)	inactive
COc1cc2c(cc1OC)C(c1ccccc1)N(C(=O)CCl)CC2 (stereo unspecified)	inactive

Compound	IC50
O=C1C(N2CCOCC2)=C(n2nnc3ccccc32)C(=O)c2ccccc21	inactive
Cc1ccc(C2(c3ccc(C)cc3)CC2C(=O)Nc2ccc([N+](=O)[O-])cc2O)cc1 (stereo unspecified)	inactive
O=C(Nc1cccc(F)c1)N(Cc1ccc(Cl)cc1)CC(O)C(F)(F)F (stereo unspecified)	inactive
O=C(Nc1cccc(-c2nc3ncccc3o2)c1)c1sc2ccccc2c1Cl	> 10 µM (inactive)
O=C(Cn1c(C(F)(F)F)nc2ccccc21)N=Nc1c(O)[nH]c2ccc(Br)cc12	> 10 µM (inactive)
O=C(Nc1ccc(Oc2ccccc2)cc1)C1CCN(c2c3c(nc4ncnn24)CCC3)CC1	> 10 µM (inactive)
CCN1C/C(=C/c2ccc(OC)c(O)c2)C(=O)/C(=C/c2ccc(OC)c(O)c2)C1	inactive
CCCCCCNC(=O)CC(c1ccccc1)c1cc(Br)ccc1O (stereo unspecified)	inactive
O=C(O)c1cccc(COc2ccccc2Cl)c1	0.91 µM
CCOC(=O)COc1ccccc1/C=C\[N+](=O)[O-]	inactive
COc1ccc(Cn2c(SCc3cc(C)ccc3C)nc3cc(OC)c(OC)cc3c2=N)cc1	inactive
Cc1ccc2c(C)nc(Nc3nc(CSc4nc5ccccc5[nH]4)cc(=O)[nH]3)nc2c1	inactive
CCOc1cc(/C=N\NC(=O)Cc2ccccc2)ccc1OCC(=O)Nc1ccc(C)c(C)c1	inactive
Cc1cc(C(=O)N/N=C/c2ccc(-c3cccc(Cl)c3Cl)o2)n[nH]1	> 10 µM (inactive)
C=CCn1c(SCC(=O)c2[nH]c(C)c(C(=O)OC)c2C)nc2scc(-c3ccc(OC)c(OC)c3)c2c1=O	inactive
C=C1C(=O)O[C@@H]2C[C@@H](C)[C@@H]3C=CC(=O)[C@@]3(C)[C@@H](OC(C)=O)[C@H]12	2.2 µM
CCCCCCOC(=O)c1ccccc1N	> 10 µM (inactive)
COc1cc(/C=N/O)cc(Br)c1OCc1cccc(Cl)c1	inactive
CCCOc1ccccc1C1CC(=O)NC(C)=C1C(=O)OCC(C)C (stereo unspecified)	inactive
COC(=O)c1ccc2c(=O)n(CCCCCC(=O)N3CCN(c4ccccc4)CC3)c(=O)[nH]c2c1	> 10 µM (inactive)
Cc1ccc2nc(NC(=O)C3CCN(S(=O)(=O)c4cc([N+](=O)[O-])ccc4Cl)CC3)sc2c1	inactive
CCOC(=O)c1cc(-c2cccs2)nc2c1c(C)nn2-c1ccccn1	> 10 µM (inactive)
COc1ccc(OCc2cccc(C(=O)Nn3cc([N+](=O)[O-])cn3)c2)cc1	0.33 µM
O=C(CCCOc1ccc(Cl)cc1Cl)N/N=C\C1CCCCC1	inactive

Compound	IC50
CCc1ccc(NP(=O)(Oc2ccccc2F)Oc2ccccc2F)cc1	> 10 µM (inactive)
Cc1cccc(N2CCN(C(=O)CS(=O)(=O)Cc3nc(-c4ccccc4F)oc3C)CC2C)c1 (stereo unspecified)	> 10 µM (inactive)
Cc1ccc(/C=N/NC(=O)CCCOc2ccc(Cl)cc2Cl)cc1	> 10 µM (inactive)
CCCCCc1ccc(OCCOCCn2c[n+](C)c3ccccc32)c(CCCCC)c1	inactive
Cc1cc(-c2n[nH]c(=S)n2/N=C/C(Br)=C/c2ccccc2)n[nH]1	inactive
OC(COCC(F)(F)C(F)(F)C(F)(F)C(F)F)Cn1c2ccccc2c2ccccc21 (stereo unspecified)	inactive
COc1cc(/C=C(/C#N)c2nc3ccccc3[nH]2)ccc1OCC(=O)Nc1ccccc1C(C)C	inactive
Cc1cc(C)cc(OC2CCCCC2NS(=O)(=O)c2ccccc2)c1 (stereo unspecified)	> 10 µM (inactive)
CCOC(=O)c1c2ccc(OCC(=O)N/N=C/c3ccc(C)cc3)cc2n2ccccc12	inactive
COc1ccccc1-c1cc(C(F)(F)F)nc(S(=O)(=O)CCCC(=O)NC(C)C)n1	inactive
CC(C)(C)C(=O)Cn1ncc(Br)c(Br)c1=O	> 10 µM (inactive)
O=C(Nc1ccc(Cl)c(C(F)(F)F)c1)NC1CC2CCCC(C1)N2Cc1ccccc1 (stereo unspecified)	> 10 µM (inactive)
O=S(=O)(Nc1cccc2c1CCCC2)c1cccc(C(F)(F)F)c1	inactive
O=C(c1ccc(Cl)cc1)N1CCC(O)(CSc2ccc(Cl)cc2Cl)CC1	> 10 µM (inactive)
O=C(Nc1ccc(OC(F)F)cc1)Nc1cccc(C(F)(F)F)c1	> 10 µM (inactive)
Cc1nc(Nc2ccc(F)cc2)[nH]c(=O)c1CCC(C)C	inactive
OCCCNc1nccc(-c2cc(Nc3cccc(Cl)c3)ncn2)n1	0.3 µM
Cc1nc(SCC(=O)Nc2ccc(F)cc2)c(C#N)c(C)c1CC(=O)c1ccc(Br)cc1	> 10 µM (inactive)
CCc1ccc(OCC(=O)NC(NC(=S)Nc2ccc(Cl)cc2)C(Cl)(Cl)Cl)cc1 (stereo unspecified)	inactive
COC(=O)[C@]12OC[C@]34C([C@@H](O)[C@@H]1O)[C@]1(C)CC(=O)C(O)=C(C)[C@@H]1C[C@H]3OC(=O)[C@H](O)[C@@H]24 (stereo partly specified)	inactive
COc1ccc(N=c2oc3ccc(OC)cc3cc2-c2nc3ccccc3[nH]2)cc1	inactive
CC(C)Oc1cc(NC(=O)CS(=O)CC(=O)Nc2cccc(C(F)(F)F)c2)c(Cl)cc1Cl (stereo unspecified)	inactive
C=CCOC(=O)C1=C(C)NC(SCC(=O)Nc2nccs2)=C(C#N)C1c1ccc(Cl)cc1 (stereo unspecified)	> 10 µM (inactive)
O=C(Nc1ccc(-c2nc3ccccc3s2)cc1)C1=COCCO1	inactive

Compound	IC50
FC(F)(F)c1cccc(NC(=S)NC(c2ccccc2)c2ccccc2)c1	> 10 µM (inactive)
O=C1C=CC(=O)N1CCCCCCN1C(=O)C=CC1=O	inactive
Fc1ccc(-n2nnnc2-c2cnc(-c3cccs3)nc2C(F)(F)F)cc1	inactive
CCCCCCn1c(=O)c(C(=O)Nc2cnccn2)c(O)c2ccccc21	1.8 µM
Cc1ccc(NC(=O)c2cc3ccccc3oc2=O)cc1S(=O)(=O)N(C)C	< 0.16 µM
Cc1ccccc1CS(=O)(=O)c1nnc([C@H](CC(C)C)NC(=O)OC(C)(C)C)o1	inactive
CCCCc1c(C)nn(-c2nnc3c4ccccc4n(CC)c3n2)c1C	> 10 µM (inactive)
Cc1ccc(NN2C(=O)C=C(c3ccc(Cl)cc3)C2=O)cc1	inactive
O=C(Nc1ccc(-c2nc3ccccc3o2)cc1)c1ccc(N2CCOCC2)c([N+](=O)[O-])c1	> 10 µM (inactive)
COc1ccc(N=CC2=C(O)c3ccccc3C2=O)c(OC)c1	inactive
O=C(/C=C\c1cn(-c2ccccc2)nc1-c1ccccc1)Nc1nccs1	inactive
O=C(NCCNC(=O)c1cc(OCC(F)(F)F)ccc1OCC(F)(F)F)Nc1cccc(C(F)(F)F)c1	> 10 µM (inactive)
CC(C)Oc1ccc(CNC(=O)CC(c2ccccc2)c2cc(Cl)ccc2O)cc1 (stereo unspecified)	> 10 µM (inactive)
Nc1cccc(Nc2nc(OC(C(F)(F)F)C(F)(F)F)nc(OC(C(F)(F)F)C(F)(F)F)n2)c1	2.09 µM
CCCCCCCCCCCCCCCC[n+]1cccc(C(=O)N(CC)CC)c1	inactive
CN(C)CCCn1c(SCC(=O)Nc2nc(-c3cccc(Br)c3)cs2)nc2ccccc2c1=O	> 10 µM (inactive)
O=C(Nc1nccs1)c1cc2c(s1)CCCCC2	> 10 µM (inactive)
CCOC(=O)c1ccc(NC(=O)c2nc[nH]c2C(=O)N[C@@H](C)C(=O)OC(C)(C)C)cc1	inactive
C/C=C(\C)C(=O)OC1C(C)=C2C(C1OC(=O)CCCCC)C(C)(OC(C)=O)CC(OC(=O)CCC)C1(O)C2OC(=O)C1(C)O (stereo unspecified)	5.03 µM
O=C(CCl)Nc1ccc(Sc2ccc(NC(=O)CCl)cc2)cc1	4.37 µM
O=C(CCl)N(Cc1cccc([N+](=O)[O-])c1)c1cccc(Cl)c1	inactive
COc1ccc(-c2[nH]ncc2N=Nc2cc(C)cc(C)c2)cc1	> 10 µM (inactive)
O=S(=O)(Nc1ccccc1)c1ccc(Oc2ncc(C(F)(F)F)cc2Cl)cc1	2.15 µM
Nc1ccc(SC(F)(F)F)cc1C(=O)c1ccccc1	inactive
